Among the data in a melting point compilation (Tetko et al.; mined from patent text by program, amines drawn as free bases though some values may be those of a salt) are melting point values, retold here.

As for `CCC(=O)Nc1nc(CC(=O)Nc2nnc(C(C)(C)C)s2)cs1`, the melting point is 210 to 212 °C.

`CCCCCCCCCc1ccc(CCCC(N)(CO)CCO)cc1` (stereo not given) registered a melting point of 71 to 73 °C.

In turn, `CNC(=O)N(CCN1CCC(Nc2nc3ccccc3n2Cc2ccc(F)cc2)CC1)c1nccs1` came in with a melting point of 172 °C.

The compound `CCCCOc1ccc2c(c1)CCC(C(=O)OC)C2O` (stereo not given) returned a melting point of 81 to 83 °C.

`Cc1cc(OCc2ccccc2)nc(S(C)(=O)=O)n1` gave a melting point of 57 to 60 °C.

`CC(=O)Nc1nc2c(Oc3cc(-c4ccc(C(F)(F)F)cc4NCc4cncn4Cc4ccccc4)ncn3)cccc2s1` displayed a melting point of 264 °C.

`COc1ccc(S(=O)(=O)NC(C)(C)C(=O)NO)cc1` gave a melting point of 122 to 125 °C.

For `CC(C)NC(=O)c1c[nH]c2ncc(-c3nn(C)c4cc(Cl)cc(F)c34)nc12`, the melting point lay within 347 to 349 °C.

`COc1cc(C(F)(F)F)nc2c(N3CCC4(CC3)OCCO4)ccc(F)c12` gave a melting point of 101 to 103 °C.

For `CCOC(=O)Cc1cn(C)c2cc(C3CC3)nn2c1=O`, the melting point lay in the range of 147 to 150 °C.

`CC[C@@H](c1ccccc1)N(Cc1ccc(C(=O)OC)c(F)c1F)S(=O)(=O)c1ccc(Cl)cc1` yielded a melting point of 87 to 89 °C.

`O=C1C=C2CCCCC2N1c1ccc(O)c(Cl)c1` (stereo not given) gave a melting point of 216 °C.

`NC(=O)N(O)CC=Cc1ccc(Oc2ccccc2)o1` displayed a melting point of 126 to 128 °C.

In turn, `CC(C)(C)C(=O)C(=Cc1ccc(Cl)cc1)n1cncn1` had a melting point of 82 °C.

On to `Cc1ccc(C)n1N(C)c1ccc(N2CCOCC2)nn1`, for which the melting point is 119 to 122 °C.

The compound `COc1ccc(C(=O)Nc2nc3ccc([N+](=O)[O-])cc3c(NCc3cccs3)c2C#N)cc1` gave a melting point of 217 to 220 °C.

`O=C1c2ccccc2OS(=O)N1SC(Cl)(Cl)Cl` (stereo not given) displayed a melting point of 65 to 67 °C.

On to `CC(C)(C)OC(=O)N[C@@H](Cc1ccc(O)cc1)C(=O)NCCCN1CCN(CCCNc2cccc3c2C(=O)c2ccccc2C3=O)CC1`, for which the melting point was 102 °C.

Take `CCOC(=O)CCCCn1c(=O)n(CCN2CCN(c3ccccc3OC)CC2)c(=O)c2sccc21`: the melting point fell in the range of 118 to 119 °C.

With `O=C1c2ccccc2C(=O)N1[C@H]1C=C[C@@H](O)CC1` (racemic), the melting point was 126 to 129 °C.

`CC(C)(C)c1cc(CSCCC(=O)ON(Cc2ccccc2)Cc2ccccc2)cc(C(C)(C)C)c1O` registered a melting point of 84 to 86 °C.

`C#CCn1c(Sc2ccccc2)c(CC)c(=O)[nH]c1=O` registered a melting point of 132 °C.

On to `COc1cc(O)c([N+](=O)[O-])c2ccccc12`, for which the melting point lay within 128 to 130 °C.

The compound `Cc1cc(-n2cccn2)c2cccc(OCc3c(Cl)ccc(S(=O)(=O)N4CCC[C@H]4C(=O)NCC4CCN(CCCO)CC4)c3Cl)c2n1` yielded a melting point of 112 °C.

In the case of `O=C(COC(F)(F)F)Nc1ccccc1`, the melting point lay in the range of 64 to 66.5 °C.

The compound `COc1ccc(-c2ccc3c(c2)C=C(C(=O)Nc2ccc(CN(C)C4CCOCC4)cc2)CCS3(=O)=O)c(OC)c1` registered a melting point of 175 to 178 °C.

Compound `CCCC(Cl)(Cl)C(NC(=O)c1ccc(Cl)cc1)Nc1c(Nc2cccnc2)c(=O)c1=O` (stereo not given) had a melting point of 258 to 259 °C.

For the compound `O=C1c2ccccc2N=C(c2ccccc2)C1O` (stereo not given), the melting point is 260 to 262 °C.

`Cc1cccc2c1COC(=O)N2` came in with a melting point of 222 to 226 °C.

In turn, `CCCc1cc(NC(=O)N2CCN(c3ccccc3OC)CC2)c(OC)nc1C` displayed a melting point of 109 to 110 °C.

For the compound `COc1ccc(C#CC(C)N(O)C(N)=O)cc1Oc1ccc(F)cc1` (stereo not given), the melting point is 139 to 140 °C.

As for `COC(=O)c1cnccc1NC(=O)C(C)CS` (stereo not given), the melting point lay in the range of 54 to 56 °C.

Take `Nc1cccc(S(F)(F)(F)(F)F)c1`: the melting point lay within 32 to 35 °C.

Take `CCCCCCCCCCCCCCCCCCC(=O)Nc1ccn(C2OC(CO)C(O)C2O)c(=O)n1` (stereo not given): the melting point fell in the range of 139 to 142 °C.

As to `COCC(C#N)=Cc1ccc(OC)c(OC)c1`, the melting point is 82 to 83 °C.
